Results as given in patent US9242984B2, “Pyrazolyl derivatives as Syk inhibitors” (Merck Sharp & Dohme Corp., priority 2012, dated 2016).
Read-outs that look alike come from different tables or passages of the source.

Biological target: T1, recombinant human Syk (GST-hSyk fusion protein) (Homo sapiens, UniProt P43405)
T1 construct: purchased Carna Biosciences 08-176
Test: Homogeneous Time-Resolved Fluorescence (HTRF) assay for the recombinant human Syk enzyme
Assay type: biochemical
Conditions: 10-dose titration, 25 μM ATP
Protocol: Syk inhibition may be determined using the following assay protocol:
Homogeneous Time-Resolved Fluorescence (HTRF) Assay for the Recombinant Human Syk Enzyme:
A recombinant GST-hSyk fusion protein was used to measure potency of compounds to inhibit human Syk activity. The recombinant human GST-Syk (Carna Biosciences #08-176) (5 pM final concentration) was incubated with various concentrations of the inhibitor diluted in DMSO (0.1% final concentration) for 10 minutes at room temperature in 15 mM Tris-HCl (pH 7.5), 0.01% tween 20, 2 mM DTT in 384 well plate format. To initiate the reaction the biotinylated substrate peptide (250 nM final concentration) that contains the phosphorylation site for Syk was added with magnesium (5 mM final concentration) and ATP (25 μM final concentration). Final volume of the reaction was 10 μL. Phosphorylation of the peptide was allowed to proceed for 45 minutes at room temperature. To quench the reaction and detect the phosphorylated product, 2 nM of a Europium-anti-phosphotyrosine antibody (Perkin Elmer #AD0161) and 70 nM SA-APC (Perkin-Elmer #CR130-100) were added together in 15 mM Tris pH 7.5, 40 mM EDTA, 0.01% tween 20. Final volume of the quenching solution was 10 μL. The resulting HTRF signal was measured after 30 minutes on an EnVision (Perkin-Elmer) reader using a time-resolved fluorescence protocol. IC50 was determined following 10-dose titration (10 μM to 0.508 nM) and four parameter logistic curve fitting using the Merck Assay Data Analyzer. The rhSyk activity (IC50) is expressed as +++(100 nM or less), ++(between 100 and 1000 nM), +(between 1 and 10 μM).

[1] = IC50 class, read-out: rhSYK Activity

Q: For `Cc1cc(Nc2nccc(C(F)F)n2)cc(-c2cnn(C3CCC(O)C3(C)O)c2)c1` (centres unmarked) [Example 22.14, 5-[4-(3-{[4-(difluoromethyl)pyrimidin-2-yl]amino}-5-methylphenyl)-1H-pyrazol-1-yl]-1-methylcyclopentane-1,2-diol], which IC50 (read-out: rhSYK IC50) is on record?
A: 5.8 nM

Q: And the IC50 [1]?
A: ≤ 100 nM

Q: `CCC(C(=O)O)n1cc(-c2cc(C)cc(Nc3nccc(C(F)(F)F)n3)c2)cn1` (centres unmarked) [Example 3.34, 2-[4-(3-methyl-5-{[4-(trifluoromethyl)pyrimidin-2-yl]amino}-phenyl)-1H-pyrazol-1-yl]butanoic acid] was tested. Which IC50 [1] did it give?
A: ≤ 100 nM

Q: How did the IC50 (read-out: rhSYK IC50) turn out when `Cc1cc(Nc2nccc(C(F)(F)F)n2)cc(-c2cnn(C[C@@H]3OC(=O)N[C@H]3C)c2)c1` (single isomer, unassigned) [Example 23.1] was run?
A: 1.2 nM

Q: What about the IC50 [1] of the same molecule?
A: ≤ 100 nM

Q: How did the IC50 [1] turn out when `Cc1cc(Nc2nccc(C(F)(F)F)n2)cc(-c2cnn(C[C@H](O)C(N)=O)c2)c1` [Example 8.4, (2S)-2-hydroxy-3-[4-(3-methyl-5-{[4-(trifluoromethyl)-pyrimidin-2-yl]amino}-phenyl)-1H-pyrazol-1-yl]propanamide] was run?
A: ≤ 100 nM

Q: With `Cc1cc(Nc2nccc(C(C)C)n2)cc(-c2cnn(CC3CNC(=O)O3)c2)c1` (centres unmarked) [Example 2.24, 5-{[4-(3-methyl-5-{[4-(1-methylethyl)pyrimidin-2-yl]amino}phenyl)-1H-pyrazol-1-yl]methyl}-1,3-oxazolidin-2-one] as the molecule, how does the IC50 [1] read?
A: ≤ 100 nM

Q: `Cc1cc(Nc2nccc(C(F)F)n2)cc(-c2cnn(CC(C)(C)N)c2)c1` [Example 2.85, N-{3-[1-(2-amino-2-methylpropyl)-1H-pyrazol-4-yl]-5-methylphenyl}-4-(difluoromethyl)pyrimidin-2-amine] was tested. Which IC50 [1] did it give?
A: ≤ 100 nM

Q: How did the IC50 [1] turn out when `COc1nc(Nc2cc(C)cc(-c3cnn(CC4CNC(=O)O4)c3)c2)ncc1F` (centres unmarked) [Example 2.25, 5-[(4-{3-[(5-fluoro-4-methoxypyrimidin-2-yl)amino]-5-methylphenyl}-1H-pyrazol-1-yl)methyl]-1,3-oxazolidin-2-one] was run?
A: ≤ 100 nM

Q: `CC(O)c1ccnc(Nc2cccc(-c3cnn(C[C@](C)(O)CO)c3)c2)n1` (stereo partly drawn) [Example 2.93, (2S)-3-[4-(3-{[4-(1-hydroxyethyl)pyrimidin-2-yl]amino}phenyl)-1H-pyrazol-1-yl]-2-methylpropane-1,2-diol] was tested. Which IC50 [1] did it give?
A: ≤ 100 nM

Q: Which IC50 [1] does the source give for `Cc1cc(Nc2ncc(F)c(C(F)F)n2)cc(-c2cnn(CC(C)(O)CO)c2)c1` (single isomer, unassigned) [Example 25.9, 3-[4-(3-{[4-(difluoromethyl)-5-fluoropyrimidin-2-yl]amino}-5-methylphenyl)-1H-pyrazol-1-yl]-2-methylpropane-1,2-diol] here?
A: ≤ 100 nM

Q: `Cc1cc(Nc2nccc(C(F)(F)F)n2)cc(-c2cnn(C3C=CCCC3)c2)c1` (centres unmarked) [Example 1.5, N-[3-(1-cyclohex-2-en-1-yl-1H-pyrazol-4-yl)-5-methylphenyl]-4-(trifluoromethyl)-pyrimidin-2-amine] was tested. Which IC50 [1] did it give?
A: ≤ 100 nM

Q: For `Cc1cc(Nc2nccc(C(F)(F)F)n2)cc(-c2cnn(CC(C)(O)CC#N)c2)c1` (centres unmarked) [Example 20.2, 3-hydroxy-3-methyl-4-[4-(3-methyl-5-{[4-(trifluoromethyl)pyrimidin-2-yl]amino}phenyl)-1H-pyrazol-1-yl]butanenitrile], which IC50 [1] is on record?
A: ≤ 100 nM

Q: `Cc1cc(Nc2nccc(C(F)F)n2)cc(-c2cnn(CC(C)(C)NC(=O)NC(C)(C)C)c2)c1` [Example 27.7, 1-tert-butyl-3-{2-[4-(3-{[4-(difluoromethyl)pyrimidin-2-yl]amino}-5-methylphenyl)-1H-pyrazol-1-yl]-1,1-dimethylethyl}urea] was tested. Which IC50 [1] did it give?
A: ≤ 100 nM

Q: With `COc1nc(Nc2cc(C)cc(-c3cnn(C[C@H](O)C(=O)O)c3)c2)ncc1Cl` [Example 11.6, (2S)-3-(4-{3-[(5-chloro-4-methoxy-pyrimidin-2-yl)-amino]-5-methyl-phenyl}-1H-pyrazol-1-yl)-2-hydroxy-propanoic acid] as the molecule, how does the IC50 [1] read?
A: ≤ 100 nM

Q: `COC(=O)[C@H](O)Cn1cc(-c2cc(C)cc(Nc3nccc(C(F)(F)F)n3)c2)cn1` [Example 5.3, methyl (2R)-2-hydroxy-3-[4-(3-methyl-5-{[4-(trifluoro-methyl)pyrimidin-2-yl]amino}phenyl)-1H-pyrazol-1-yl]propanoate] was tested. Which IC50 [1] did it give?
A: ≤ 100 nM

Q: For `Cc1cc(Nc2nccc(C(F)(F)F)n2)cc(-c2cnn(CC3CN(C)C(=O)O3)c2)c1` (single isomer, unassigned) [Example 3.1, 3-methyl-5-{[4-(3-methyl-5-{[4-(trifluoromethyl)pyrimidin-2-yl]amino}phenyl)-1H-pyrazol-1-yl]methyl}-1,3-oxazolidin-2-one], which IC50 (read-out: rhSYK IC50) is on record?
A: 31.2 nM

Q: What about the IC50 [1] of the same molecule?
A: ≤ 100 nM

Q: For `Cc1cc(Nc2cc(C)c(Cl)cn2)nc(-n2cc(CCC(=O)O)cn2)c1` [Example 18.4, 3-(1-{6-[(5-chloro-4-methylpyridin-2-yl)amino]-4-methylpyridin-2-yl}-1H-pyrazol-4-yl)propanoic acid], which IC50 [1] is on record?
A: 100 to 1000 nM

Q: `Cc1cc(Nc2nccc(C(F)F)n2)cc(-c2cnn(CC(C)(O)C(F)(F)F)c2)c1` (single isomer, unassigned) [Example 24.1, (S or R)-3-(4-(3-((4-(difluoromethyl)pyrimidin-2-yl)amino)-5-methylphenyl)-1H-pyrazol-1-yl)-1,1,1-trifluoro-2-methylpropan-2-ol] was tested. Which IC50 (read-out: rhSYK IC50) did it give?
A: 2.6 nM

Q: What about the IC50 [1] of the same molecule?
A: ≤ 100 nM

Q: `CCOC(=O)CCn1cc(-c2cc(C)cc(Nc3cc(C4CC4)ccn3)n2)cn1` [Example 1.17, ethyl 3-(4-{6-[(4-cyclopropylpyridin-2-yl)amino]-4-methylpyridin-2-yl}-1H-pyrazol-1-yl)propanoate] was tested. Which IC50 [1] did it give?
A: ≤ 100 nM

Q: How did the IC50 [1] turn out when `Cc1cc(Nc2nccc(C(F)(F)F)n2)cc(-c2cnn(CC(C)(O)C(N)=O)c2)c1` (centres unmarked) [Example 8.23, 2-hydroxy-2-methyl-3-[4-(3-methyl-5-{[4-(trifluoromethyl)-pyrimidin-2-yl]amino}-phenyl)-1H-pyrazol-1-yl]propanamide] was run?
A: ≤ 100 nM

Q: `Cc1cc(Nc2cc(C(F)F)ccn2)nc(-c2cnn(C(C)C3CNC(=O)O3)c2)c1` (centres unmarked) [Example 3.87, 5-{1-[4-(6-{[4-(difluoromethyl)pyridin-2-yl]amino}-4-methylpyridin-2-yl)-1H-pyrazol-1-yl]ethyl}-1,3-oxazolidin-2-one] was tested. Which IC50 [1] did it give?
A: ≤ 100 nM

Q: With `Cc1cc(Nc2nccc(C(F)(F)F)n2)cc(-c2cnn(CC(C)(O)C(N)=O)c2)c1` (racemic) [Example 8.11, 2-hydroxy-2-methyl-3-[4-(3-methyl-5-{[4-(trifluorometh-yl)pyrimidin-2-yl]amino}-phenyl)-1H-pyrazol-1-yl]propanamide] as the molecule, how does the IC50 [1] read?
A: ≤ 100 nM

Q: With “6-methyl-2-(1H-pyrazol-4-yl)-N-[4-(trifluoro-methyl)pyridin-2-yl]pyrimidin-4-amine [Example 1.41]” as the molecule, how does the IC50 [1] read?
A: ≤ 100 nM

Q: With `O=C(O)C1CCC(n2cc(-c3cc(Cl)cc(Nc4nccc(C(F)(F)F)n4)c3)cn2)CC1` (centres unmarked) [Example 1.61, 4-[4-(3-chloro-5-{[4-(trifluoromethyl)pyrimidin-2-yl]amino}phenyl)-1H-pyrazol-1-yl]cyclohexanecarboxylic acid] as the molecule, how does the IC50 [1] read?
A: ≤ 100 nM

Q: `COc1ccnc(Nc2cc(C)cc(-c3cnn(C[C@H](O)C(=O)O)c3)c2)n1` [Example 11.2, (2S)-2-hydroxy-3-(4-{3-[(4-methoxy-pyrimidin-2-yl)amino]-5-methylphenyl}-1H-pyrazol-1-yl)-propanoic acid] was tested. Which IC50 [1] did it give?
A: ≤ 100 nM

Q: With `Cc1cc(Nc2ncc(Cl)c(C)n2)cc(-c2cnn(C[C@@H](O)C(=O)O)c2)c1` [Example 11.7, (2R)-3-(4-{3-[(5-chloro-4-methyl-pyrimidin-2-yl)-amino]-5-methyl-phenyl}-1H-pyrazol-1-yl)-2-hydroxy-propanoic acid] as the molecule, how does the IC50 [1] read?
A: ≤ 100 nM

Q: `Cc1cc(Nc2nccc(C(F)F)n2)cc(-c2cnn(CC3CNC(=O)O3)c2)c1` (centres unmarked) [Example 2.63, 5-{[4-(3-{[4-(difluoromethyl)pyrimidin-2-yl]amino}-5-methylphenyl)-1H-pyrazol-1-yl]methyl}-1,3-oxazolidin-2-one] was tested. Which IC50 [1] did it give?
A: ≤ 100 nM

Q: For `Cc1cc(Nc2nccc(C)n2)cc(-c2cnn(CC3(C)CNC(=O)O3)c2)c1` (centres unmarked) [Example 3.122, 5-methyl-5-[(4-{3-methyl-5-[(4-methylpyrimidin-2-yl)amino]phenyl}-1H-pyrazol-1-yl)methyl]-1,3-oxazolidin-2-one], which IC50 [1] is on record?
A: ≤ 100 nM

Q: With `Cc1cc(Nc2nccc([C@@H](C)F)n2)cc(-c2cnn(CC(C)(O)CO)c2)c1` (single isomer, unassigned) [Example 25.6] as the molecule, how does the IC50 [1] read?
A: ≤ 100 nM

Q: How did the IC50 [1] turn out when `Cc1cc(Nc2nccc(C(F)F)n2)cc(-c2cnn(CC(O)Cn3cccn3)c2)c1` (centres unmarked) [Example 5.25, 1-[4-(3-{[4-(difluoromethyl)pyrimidin-2-yl]amino}-5-methylphenyl)-1H-pyrazol-1-yl]-3-(1H-pyrazol-1-yl)propan-2-ol] was run?
A: ≤ 100 nM

Q: With `Cc1cc(Nc2cc(C(F)(F)F)ccn2)nc(-c2cn[nH]c2)c1` [Example 1.12, 4-methyl-6-(1H-pyrazol-4-yl)-N-[4-(trifluoromethyl)pyridin-2-yl]pyridin-2-amine] as the molecule, how does the IC50 [1] read?
A: ≤ 100 nM

Q: `Cc1cc(Nc2nccc(C(F)(F)F)n2)cc(-c2cnn(CC3NC(=O)OC3C)c2)c1` (centres unmarked) [Example 3.107, 5-methyl-4-{[4-(3-methyl-5-{[4-(trifluoromethyl)pyrimidin-2-yl]amino}phenyl)-1H-pyrazol-1-yl]methyl}-1,3-oxazolidin-2-one] was tested. Which IC50 [1] did it give?
A: ≤ 100 nM
